Experimental data taken from publication PMC10174618, “Monoterpenoid aryl hydrocarbon receptor allosteric antagonists protect against ultraviolet skin damage in female mice” (Nature Communications, 2023).

Columns and labels:
Assay in all cases: biochemical
Design in all cases: KINOMEscan scanMAX active site-directed competition binding assay, percent of control, 468 kinases
Conditions in all cases: competition binding, percent of control
BIKE = target: T1, BIKE (Homo sapiens, UniProt Q9NSY1)
T1 construct: gene BMP2K
Procedure, shortened: (§1)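 Single-concentration screen (100 μM S-carvone) in a competition binding panel of 468 human kinases (KINOMEscan scanMAX); results given as percent of control, hit cutoff 35%.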

BMX = BMX (Homo sapiens, UniProt P51813)
Procedure, shortened: as §1

BRAF(V600E) = BRAF(V600E) (Homo sapiens, UniProt P15056, V600E)
Procedure, shortened: as §1

CAMKK2 = CAMKK2 (Homo sapiens, UniProt Q96RR4)
Procedure, shortened: as §1

CLK3 = CLK3 (Homo sapiens, UniProt P49761)
Procedure, shortened: as §1

CSNK1G1 = CSNK1G1 (Homo sapiens, UniProt Q9HCP0)
Procedure, shortened: as §1

FLT3 = FLT3 (Homo sapiens, UniProt P36888)
Procedure, shortened: as §1

FLT3(D835V) = FLT3(D835V) (Homo sapiens, UniProt P36888, D835V)
Procedure, shortened: as §1

LATS2 = LATS2 (Homo sapiens, UniProt Q9NRM7)
Procedure, shortened: as §1

MET(M1250T) = MET(M1250T) (Homo sapiens, UniProt P08581, M1250T)
Procedure, shortened: as §1

MLK1 = target: T2, MLK1 (Homo sapiens, UniProt P80192)
T2 construct: gene MAP3K9
Procedure, shortened: as §1

MST2 = target: T3, MST2 (Homo sapiens, UniProt Q13188)
T3 construct: gene STK3
Procedure, shortened: as §1

MYO3B = MYO3B (Homo sapiens, UniProt Q8WXR4)
Procedure, shortened: as §1

PIK3C2G = PIK3C2G (Homo sapiens, UniProt O75747)
Procedure, shortened: as §1

PIK3CG = PIK3CG (Homo sapiens, UniProt P48736)
Procedure, shortened: as §1

RIPK1 = RIPK1 (Homo sapiens, UniProt Q13546)
Procedure, shortened: as §1

[1] = target: T4, RSK1(Kin.Dom.1-N-terminal) (Homo sapiens, UniProt Q15418)
T4 construct: gene RPS6KA1; Kin.Dom.1-N-terminal
Procedure, shortened: as §1

[2] = target: T5, RSK4(Kin.Dom.2-C-terminal) (Homo sapiens, UniProt Q9UK32)
T5 construct: gene RPS6KA6; Kin.Dom.2-C-terminal
Procedure, shortened: as §1

SRC = SRC (Homo sapiens, UniProt P12931)
Procedure, shortened: as §1

TGFBR2 = TGFBR2 (Homo sapiens, UniProt P37173)
Procedure, shortened: as §1

YSK4 = target: T6, YSK4 (Homo sapiens, UniProt Q56UN5)
T6 construct: gene MAP3K19
Procedure, shortened: as §1

T5 sequence (Q9UK32 whole entry): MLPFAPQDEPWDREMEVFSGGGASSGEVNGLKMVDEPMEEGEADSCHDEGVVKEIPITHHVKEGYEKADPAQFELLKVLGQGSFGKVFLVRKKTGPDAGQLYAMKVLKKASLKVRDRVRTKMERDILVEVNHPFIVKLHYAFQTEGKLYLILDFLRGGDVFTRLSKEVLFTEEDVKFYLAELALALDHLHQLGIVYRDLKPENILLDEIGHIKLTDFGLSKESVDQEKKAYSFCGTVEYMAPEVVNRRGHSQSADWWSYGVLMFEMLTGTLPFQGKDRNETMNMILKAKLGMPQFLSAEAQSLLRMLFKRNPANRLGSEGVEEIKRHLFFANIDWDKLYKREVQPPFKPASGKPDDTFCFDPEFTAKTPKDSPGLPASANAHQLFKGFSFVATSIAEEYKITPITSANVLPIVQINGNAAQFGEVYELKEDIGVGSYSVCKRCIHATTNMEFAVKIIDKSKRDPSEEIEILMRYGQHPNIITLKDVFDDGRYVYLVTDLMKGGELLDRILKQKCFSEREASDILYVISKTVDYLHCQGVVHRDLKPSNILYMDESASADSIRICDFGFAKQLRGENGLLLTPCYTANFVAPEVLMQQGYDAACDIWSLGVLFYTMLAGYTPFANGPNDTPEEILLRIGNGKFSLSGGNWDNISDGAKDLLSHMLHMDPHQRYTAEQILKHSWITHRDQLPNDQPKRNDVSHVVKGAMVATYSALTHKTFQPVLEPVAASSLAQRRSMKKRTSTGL
Chain of MYO3B (Q8WXR4 whole entry): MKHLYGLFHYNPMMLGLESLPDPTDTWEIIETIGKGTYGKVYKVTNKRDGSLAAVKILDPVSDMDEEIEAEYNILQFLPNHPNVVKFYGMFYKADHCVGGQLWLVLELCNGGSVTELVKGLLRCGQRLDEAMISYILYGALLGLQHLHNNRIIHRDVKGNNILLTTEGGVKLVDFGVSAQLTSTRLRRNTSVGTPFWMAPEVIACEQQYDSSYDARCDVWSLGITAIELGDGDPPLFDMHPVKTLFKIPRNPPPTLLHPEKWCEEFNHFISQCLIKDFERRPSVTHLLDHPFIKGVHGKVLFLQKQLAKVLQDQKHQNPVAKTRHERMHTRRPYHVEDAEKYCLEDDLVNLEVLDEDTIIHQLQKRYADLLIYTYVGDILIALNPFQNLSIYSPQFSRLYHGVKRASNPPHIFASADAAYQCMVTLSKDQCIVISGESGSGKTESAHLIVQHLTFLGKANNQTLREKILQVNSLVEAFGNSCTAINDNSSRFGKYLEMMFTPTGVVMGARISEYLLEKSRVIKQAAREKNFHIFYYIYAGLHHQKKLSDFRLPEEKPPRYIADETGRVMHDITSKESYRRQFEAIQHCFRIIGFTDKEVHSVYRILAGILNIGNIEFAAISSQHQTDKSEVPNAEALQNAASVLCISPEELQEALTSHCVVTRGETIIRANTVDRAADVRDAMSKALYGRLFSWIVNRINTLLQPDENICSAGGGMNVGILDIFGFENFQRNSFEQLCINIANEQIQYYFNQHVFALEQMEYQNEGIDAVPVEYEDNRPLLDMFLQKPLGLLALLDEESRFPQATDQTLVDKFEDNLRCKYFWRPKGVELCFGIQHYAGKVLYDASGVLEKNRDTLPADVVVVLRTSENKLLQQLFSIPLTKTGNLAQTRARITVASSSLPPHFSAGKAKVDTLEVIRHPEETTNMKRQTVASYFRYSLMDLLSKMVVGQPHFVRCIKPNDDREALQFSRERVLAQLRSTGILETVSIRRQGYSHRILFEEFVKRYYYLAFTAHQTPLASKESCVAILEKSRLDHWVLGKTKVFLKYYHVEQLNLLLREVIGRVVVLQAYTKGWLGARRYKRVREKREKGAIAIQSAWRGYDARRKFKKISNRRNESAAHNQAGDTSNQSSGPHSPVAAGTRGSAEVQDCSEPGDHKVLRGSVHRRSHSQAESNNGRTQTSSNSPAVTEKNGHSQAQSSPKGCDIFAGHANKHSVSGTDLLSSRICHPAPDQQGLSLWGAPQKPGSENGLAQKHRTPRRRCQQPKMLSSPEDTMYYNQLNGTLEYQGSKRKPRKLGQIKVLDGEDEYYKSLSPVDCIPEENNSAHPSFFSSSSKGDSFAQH
T3 sequence (Q13188 whole entry): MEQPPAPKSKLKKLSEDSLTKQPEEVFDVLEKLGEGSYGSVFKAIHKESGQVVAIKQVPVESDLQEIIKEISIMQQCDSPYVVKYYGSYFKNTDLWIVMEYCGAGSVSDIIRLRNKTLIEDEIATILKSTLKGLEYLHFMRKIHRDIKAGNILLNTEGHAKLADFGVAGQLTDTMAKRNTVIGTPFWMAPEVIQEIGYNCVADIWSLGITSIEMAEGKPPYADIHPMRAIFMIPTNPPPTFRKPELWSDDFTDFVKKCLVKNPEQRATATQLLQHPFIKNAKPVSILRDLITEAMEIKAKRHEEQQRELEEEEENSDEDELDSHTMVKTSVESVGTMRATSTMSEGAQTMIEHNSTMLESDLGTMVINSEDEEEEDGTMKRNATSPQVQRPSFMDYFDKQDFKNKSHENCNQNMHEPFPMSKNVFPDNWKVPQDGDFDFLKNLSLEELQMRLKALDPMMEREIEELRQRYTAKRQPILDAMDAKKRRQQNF
T6 sequence (Q56UN5 whole entry): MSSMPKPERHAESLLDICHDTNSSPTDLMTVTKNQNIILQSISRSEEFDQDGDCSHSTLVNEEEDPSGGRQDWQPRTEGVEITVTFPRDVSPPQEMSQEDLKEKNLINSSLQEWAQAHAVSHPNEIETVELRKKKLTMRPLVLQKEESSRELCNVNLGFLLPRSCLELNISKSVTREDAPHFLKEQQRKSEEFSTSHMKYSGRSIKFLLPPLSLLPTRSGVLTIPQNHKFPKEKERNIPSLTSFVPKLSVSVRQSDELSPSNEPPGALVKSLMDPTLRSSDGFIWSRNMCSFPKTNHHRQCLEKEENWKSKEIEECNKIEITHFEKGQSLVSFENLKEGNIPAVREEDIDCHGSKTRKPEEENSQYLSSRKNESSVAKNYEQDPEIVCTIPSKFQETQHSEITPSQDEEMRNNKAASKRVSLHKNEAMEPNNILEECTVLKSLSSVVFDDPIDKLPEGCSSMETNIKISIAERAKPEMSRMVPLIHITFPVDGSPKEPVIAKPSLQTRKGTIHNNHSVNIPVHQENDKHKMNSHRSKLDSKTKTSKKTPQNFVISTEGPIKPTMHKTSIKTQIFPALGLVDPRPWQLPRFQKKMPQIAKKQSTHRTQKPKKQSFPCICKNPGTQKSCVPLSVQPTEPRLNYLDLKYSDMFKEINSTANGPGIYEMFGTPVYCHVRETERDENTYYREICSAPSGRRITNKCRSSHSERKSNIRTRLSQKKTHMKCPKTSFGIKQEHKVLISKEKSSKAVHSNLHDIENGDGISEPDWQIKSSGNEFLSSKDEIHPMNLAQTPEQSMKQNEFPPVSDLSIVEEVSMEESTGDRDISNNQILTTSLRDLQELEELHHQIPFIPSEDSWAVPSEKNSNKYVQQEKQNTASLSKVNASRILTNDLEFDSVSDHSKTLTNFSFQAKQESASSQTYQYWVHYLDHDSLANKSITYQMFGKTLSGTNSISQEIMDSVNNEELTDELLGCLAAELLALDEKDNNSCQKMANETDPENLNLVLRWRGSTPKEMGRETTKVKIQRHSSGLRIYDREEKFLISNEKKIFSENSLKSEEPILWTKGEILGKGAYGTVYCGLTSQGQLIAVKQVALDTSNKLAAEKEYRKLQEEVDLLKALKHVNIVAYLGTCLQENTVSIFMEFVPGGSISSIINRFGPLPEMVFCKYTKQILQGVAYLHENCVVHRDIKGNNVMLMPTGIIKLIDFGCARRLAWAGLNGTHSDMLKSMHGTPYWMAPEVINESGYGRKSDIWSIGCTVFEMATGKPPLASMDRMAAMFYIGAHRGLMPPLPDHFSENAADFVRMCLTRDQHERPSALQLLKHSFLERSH
Chain of BMX (P51813 whole entry): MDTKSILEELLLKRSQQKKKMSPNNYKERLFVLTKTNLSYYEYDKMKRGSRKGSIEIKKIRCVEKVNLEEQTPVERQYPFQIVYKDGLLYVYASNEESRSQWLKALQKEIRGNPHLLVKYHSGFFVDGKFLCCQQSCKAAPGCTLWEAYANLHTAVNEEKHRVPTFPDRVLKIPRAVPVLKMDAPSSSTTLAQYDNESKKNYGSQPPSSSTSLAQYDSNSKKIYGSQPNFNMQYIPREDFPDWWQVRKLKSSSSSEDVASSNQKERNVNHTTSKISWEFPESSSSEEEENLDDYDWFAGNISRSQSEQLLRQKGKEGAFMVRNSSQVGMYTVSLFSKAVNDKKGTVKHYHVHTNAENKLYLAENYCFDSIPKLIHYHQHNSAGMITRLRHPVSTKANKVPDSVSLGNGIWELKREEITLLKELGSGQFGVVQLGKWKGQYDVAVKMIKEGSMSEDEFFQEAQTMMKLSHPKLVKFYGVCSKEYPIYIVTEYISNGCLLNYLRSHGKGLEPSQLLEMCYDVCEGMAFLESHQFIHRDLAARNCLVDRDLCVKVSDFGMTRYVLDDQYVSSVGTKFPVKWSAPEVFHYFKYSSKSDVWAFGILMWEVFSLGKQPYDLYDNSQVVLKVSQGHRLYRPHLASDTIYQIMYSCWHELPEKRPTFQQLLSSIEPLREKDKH
Chain of CLK3 (P49761 whole entry): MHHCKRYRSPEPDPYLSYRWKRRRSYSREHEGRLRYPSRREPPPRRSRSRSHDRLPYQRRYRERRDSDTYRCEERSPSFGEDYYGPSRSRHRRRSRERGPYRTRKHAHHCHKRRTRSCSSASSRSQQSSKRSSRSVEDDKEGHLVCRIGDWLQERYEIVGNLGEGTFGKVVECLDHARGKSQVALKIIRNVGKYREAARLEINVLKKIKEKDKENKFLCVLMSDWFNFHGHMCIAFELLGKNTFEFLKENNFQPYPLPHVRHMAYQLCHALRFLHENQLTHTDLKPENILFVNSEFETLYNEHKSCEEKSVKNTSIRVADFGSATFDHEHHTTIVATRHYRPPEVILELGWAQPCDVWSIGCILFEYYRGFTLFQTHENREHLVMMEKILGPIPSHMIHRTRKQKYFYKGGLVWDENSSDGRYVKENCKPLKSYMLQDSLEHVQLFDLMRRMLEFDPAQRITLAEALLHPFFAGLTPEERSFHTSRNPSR

- remaining binding at 100 µM (BIKE): 100%
- remaining binding at 100 µM (BMX): 67%
- remaining binding at 100 µM (BRAF(V600E)): 90%
- remaining binding at 100 µM (CAMKK2): 81%
- remaining binding at 100 µM (CLK3): 99%
- remaining binding at 100 µM (CSNK1G1): 100%
- remaining binding at 100 µM (FLT3): 71%
- remaining binding at 100 µM (FLT3(D835V)): 77%
- remaining binding at 100 µM (LATS2): 45%
- remaining binding at 100 µM (MET(M1250T)): 73%
- remaining binding at 100 µM (MLK1): 92%
- remaining binding at 100 µM (MST2): 65%
- remaining binding at 100 µM (MYO3B): 94%
- remaining binding at 100 µM (PIK3C2G): 62%
- remaining binding at 100 µM (PIK3CG): 69%
- remaining binding at 100 µM (RIPK1): 87%
- remaining binding at 100 µM [1]: 91%
- remaining binding at 100 µM [2]: 57%
- remaining binding at 100 µM (SRC): 77%
- remaining binding at 100 µM (TGFBR2): 77%
- remaining binding at 100 µM (YSK4): 61%
Compound: C=C(C)[C@H]1CC=C(C)C(=O)C1 [S-carvone]
